Source: US20050147670A1, “Oral disintegrating dosage forms” (IMPAX Laboratories Inc., priority 2002, published 2005)

Key:
[1] = Bioavailability study of 25/250 mg orally disintegrating tablets in healthy adult volunteers, fasting; type: in vivo; settings: human, oral, Mean ± SD, 25/250 mg ODT, 36 healthy adult volunteers, plasma; for AUC(0-inf): read-out: AUCinf_obs
[2] = combination of carbidopa and levodopa, no entacapone; cited from earlier work

Cmax [1] [ng/mL]	Tmax [1] [h]	AUC(0-inf) [1] [ng·h/mL]	Compound	levodopa half-life without entacapone [2] [h]
98.5 ± 38.3	2.8 ± 1	560 ± 197	C[C@@](Cc1ccc(O)c(O)c1)(NN)C(=O)O [Carbidopa]	–
1470 ± 567	1.7 ± 0.8	4480 ± 1580	N[C@@H](Cc1ccc(O)c(O)c1)C(=O)O [Levodopa, (−)-L-α-amino-β-(3,4-dihydroxybenzene) propanoic acid monohydrate]	1.3
